Assay type in all cases: cell-based, human
One assay relates to MRC-5 normal fibroblasts. In words: Antiproliferative assay (MTT reduction), MRC-5 normal lung fibroblasts. The following applies: for IC50: Homo sapiens, MRC5, 72 h, MRC-5 normal fibroblasts, 3 days treatment, MTT reduction, mean ± SD, >100 µM considered inactive; for antiproliferative activity against MRC-5 (in words): up to 100 µM. As to the method: (§1) All human cell lines used in this work were purchased from the American Type Culture Collection (ATCC, Manasas, VA, USA). […] Promyelocytic leukemia HL-60 cells (CCL-240) were grown in suspension in RPM1 medium containing 1 mM sodium pyruvate and 2.0 g/L sodium bicarbonate. All media were supplemented with 10% heat-inactivated FBS, 100 IU/mL penicillin and 100 µg/mL streptomycin. Cells were grown in a humidified incubator with 5% CO2 in air at 37 °C. For the antiproliferative assay, adherent cells were plated at a density of 5 × 10^4 cells/mL and HL-60 cells at 30 × 10^4 cells/mL. Cells were seeded in 96-well plates (100 µL/well). One day after seeding, cells were treated with medium containing the compounds at concentrations ranging from 0 up to 100 µM during 3 days. The compounds were dissolved in DMSO (1% final concentration) and complete medium. Untreated cells (medium containing 1% DMSO) were used as 100% viability controls. […] Each concentration was tested in sextuplicate and experiments were repeated 2 times. Cell viability was determined by means of the MTT reduction assay at the end of the incubation with the products.
Background: Tetrazolium assays rely on reduction of a dye to a coloured formazan, in cell work by metabolically active cells.

A further assay relates to AGS cells. In words: Antiproliferative assay (MTT reduction), AGS gastric adenocarcinoma cells. The following applies: for IC50: Homo sapiens, 72 h, AGS gastric adenocarcinoma, 3 days treatment, MTT reduction, mean ± SD, >100 µM considered inactive; for antiproliferative activity against AGS (in words): up to 100 µM. As to the method: The compounds 1–20 were assessed for antiproliferative effect towards human lung fibroblasts (MRC-5) and the following human tumor cell lines: gastric adenocarcinoma (AGS), lung cancer cells (SK-MES-1), bladder carcinoma (J82) and promyelocytic leukemia (HL-60).
All human cell lines used in this work were purchased from the American Type Culture Collection (ATCC, Manasas, VA, USA). Normal lung MRC-5 fibroblasts (CCL-171), SK-MES-1 lung cancer cells (HTB-58) and J82 bladder carcinoma cells (HTB-1) were grown as monolayers in minimum essential Eagle medium (MEM) with Earles’s salts, 2 mM L-glutamine and 1.5 g/L sodium bicarbonate. Gastric adenocarcinoma AGS cells (CRL-1739) were grown as monolayers in Ham F-12 medium containing 1 mM L-glutamine and 1.5 g/L sodium bicarbonate. Promyelocytic leukemia HL-60 cells (CCL-240) were grown in suspension in RPM1 medium containing 1 mM sodium pyruvate and 2.0 g/L sodium bicarbonate. All media were supplemented with 10% heat-inactivated FBS, 100 IU/mL penicillin and 100 µg/mL streptomycin. Cells were grown in a humidified incubator with 5% CO2 in air at 37 °C. For the antiproliferative assay, adherent cells were plated at a density of 5 × 10^4 cells/mL and HL-60 cells at 30 × 10^4 cells/mL. Cells were seeded in 96-well plates (100 µL/well). One day after seeding, cells were treated with medium containing the compounds at concentrations ranging from 0 up to 100 µM during 3 days. The compounds were dissolved in DMSO (1% final concentration) and complete medium. Untreated cells (medium containing 1% DMSO) were used as 100% viability controls. […] Each concentration was tested in sextuplicate and experiments were repeated 2 times. Cell viability was determined by means of the MTT reduction assay at the end of the incubation with the products. The results were transformed to percentage of controls and the IC50 values were graphically obtained from the dose-response curves.

The subject of assay [1] is SK-MES-1 lung cancer cells. Kind of assay: Antiproliferative assay (MTT reduction), SK-MES-1 lung cancer cells. The following applies: for IC50: Homo sapiens, 72 h, SK-MES-1 lung cancer cells, 3 days treatment, MTT reduction, mean ± SD, >100 µM considered inactive; for antiproliferative activity against SK-MES-1 (in words): up to 100 µM. On the procedure: as §1
For assay [2], the system named is J82 bladder carcinoma cells. Kind of assay: Antiproliferative assay (MTT reduction), J82 bladder carcinoma cells. To be noted: for IC50: Homo sapiens, 72 h, J82 bladder carcinoma, 3 days treatment, MTT reduction, mean ± SD, >100 µM considered inactive; for antiproliferative activity against J82 (in words): up to 100 µM. On the procedure:
as §1

Another assay concerns HL-60 cells. Kind of assay: Antiproliferative assay (MTT reduction), HL-60 promyelocytic leukemia cells. To be noted: for IC50: Homo sapiens, 72 h, HL-60 promyelocytic leukemia, 3 days treatment, MTT reduction, mean ± SD, >100 µM considered inactive; for antiproliferative activity against HL-60 (in words): up to 100 µM. On the procedure: as §1

The structures appear in SMILES notation.

Results on 16 compounds are retold here after article PMC6270601, “Dimeric Labdane Diterpenes: Synthesis and Antiproliferative Effects” (Molecules, 2013).

For orientation: IC50 means the concentration at which inhibition is half-maximal. Low readings indicate greater potency in that assay, high ones weaker potency in that assay. In the case of `C=C1CCC2[C@](C)(CCC[C@]2(C)C(=O)OC)[C@H]1CC[C@@H](C)CCO` (some centres unmarked) [Compound 1, 15-Hydroxyimbricatolic acid methyl ester], the IC50 worked out at 77.7 ± 4 µM with MRC-5 normal fibroblasts; 38.5 ± 1.6 µM with AGS cells; 59.7 ± 2.4 µM in assay [1]; 63.7 ± 2.6 µM in assay [2]; 47.5 ± 3.9 µM with HL-60 cells.

Regarding `C=C1CCC2[C@](C)(CCC[C@]2(C)C(=O)OC)[C@H]1CC[C@@H](C)CCN=[N+]=[N-]` (some centres unmarked) [Compound 3, 15-Azidoimbricatolic acid methyl ester], the IC50 was 91.8 ± 6.4 µM with MRC-5 normal fibroblasts; 73.8 ± 5.2 µM with AGS cells; 67.6 ± 3.4 µM in assay [1]; above 100 µM in assay [2]; 22.3 ± 3.1 µM in the assay with HL-60 cells.

As to `C=C1CCC2[C@](C)(CCC[C@]2(C)C(=O)OC)[C@H]1CC[C@@H](C)CCn1cc(CO)nn1` (some centres unmarked) [Compound 4, 15-(4-(Hydroxymethyl)-1H-1,2,3-triazol-1-yl)-imbricatolic acid methyl ester], the IC50 in the assay on MRC-5 normal fibroblasts was 77.4 ± 3.9 µM; in the assay on AGS cells, 41.5 ± 2.1 µM; in assay [1], 67.7 ± 3.1 µM; in assay [2] it was 60.7 ± 4.6 µM; with HL-60 cells, above 100 µM.

In the case of `C=C1CCC2[C@](C)(CCC[C@]2(C)C(=O)OC)[C@H]1CC[C@@H](C)CCn1cc(CCO)nn1` (some centres unmarked) [Compound 5, 15-(4-(2-Hydroxyethyl)-1H-1,2,3-triazol-1-yl)-imbricatolic acid methyl ester], the IC50 in the assay on MRC-5 normal fibroblasts was found to be 75.8 ± 5.3 µM; in the assay with AGS cells it was 54.8 ± 3.3 µM; in assay [1], 57.2 ± 3.4 µM; in assay [2], 56.2 ± 3.9 µM; in the assay with HL-60 cells it was 48.9 ± 4.5 µM.

With `C=C1CCC2[C@](C)(CCC[C@]2(C)C(=O)OC)[C@H]1CC[C@@H](C)CCOCCCCOCC[C@H](C)CC[C@H]1C(=C)CCC2[C@]1(C)CCC[C@]2(C)C(=O)OC` (some centres unmarked) [Compound 8], the IC50 in the assay with MRC-5 normal fibroblasts was above 100 µM; in the assay with AGS cells it was 70.3 ± 6.3 µM; in assay [1] it was above 100 µM; in assay [2], above 100 µM; with HL-60 cells it was 57.8 ± 4.1 µM.

Regarding `C=C1CCC2[C@](C)(CCC[C@]2(C)C(=O)OC)[C@H]1CC[C@@H](C)CCOCCCCCOCC[C@H](C)CC[C@H]1C(=C)CCC2[C@]1(C)CCC[C@]2(C)C(=O)OC` (some centres unmarked) [Compound 9], the IC50 in the assay on MRC-5 normal fibroblasts was 68.1 ± 3.4 µM; in the assay with AGS cells, 17.8 ± 1.3 µM; in assay [1], 67.5 ± 6.9 µM; in assay [2], above 100 µM; in the assay on HL-60 cells it was 32.6 ± 2.3 µM.

For `C=C1CCC2[C@](C)(CCC[C@]2(C)C(=O)OC)[C@H]1CC[C@@H](C)CCOCCCCCCCCCOCC[C@H](C)CC[C@H]1C(=C)CCC2[C@]1(C)CCC[C@]2(C)C(=O)OC` (some centres unmarked) [Compound 10], the IC50 in the assay on MRC-5 normal fibroblasts was above 100 µM; in the assay with AGS cells, above 100 µM; in assay [1], 67.9 ± 5.4 µM; in assay [2] it was above 100 µM; with HL-60 cells, above 100 µM.

Turning to `C=C1CCC2[C@](C)(CCC[C@]2(C)C(=O)O)[C@H]1CC[C@@H](C)CC(=O)OCC[C@H](C)CC[C@H]1C(=C)CCC2[C@]1(C)CCC[C@]2(C)C(=O)OC` (some centres unmarked) [Compound 11], in the assay on MRC-5 normal fibroblasts, half-maximal inhibition (IC50) required 71.2 ± 5.3 µM and the “antiproliferative activity against MRC-5 (in words)” value is recorded as “showed activity”. Moreover, in the assay on AGS cells, the “antiproliferative activity against AGS (in words)” value is recorded as “showed activity” and it took 26.1 ± 2.2 µM to reach half-maximal inhibition (IC50). For the same compound, in assay [1], the IC50 is above 100 µM; the “antiproliferative activity against SK-MES-1 (in words)” value is “not against SK-MES-1 and J82 cells”. Further, in assay [2], the IC50 is above 100 µM; the “antiproliferative activity against J82 (in words)” value is “not against SK-MES-1 and J82 cells”. Moreover, in the assay on HL-60 cells, the “antiproliferative activity against HL-60 (in words)” value is “showed activity” and the IC50 was 80.3 ± 5.9 µM.

As to `C=C1CCC2[C@](C)(CCC[C@]2(C)C(=O)OC)[C@H]1CC[C@@H](C)CCOC(=O)C[C@H](C)CC[C@H]1C(=C)CCC2[C@]1(C)CCC[C@]2(C)C(=O)OC` (some centres unmarked) [Compound 12], in the assay with MRC-5 normal fibroblasts, the IC50 is above 100 µM and the “antiproliferative activity against MRC-5 (in words)” value is listed as “devoid of activity”. In addition, in the assay on AGS cells, the “antiproliferative activity against AGS (in words)” value is “devoid of activity” and the IC50 is above 100 µM. For the same compound, in assay [1], the IC50 was found to be 38.5 ± 2.8 µM and the “antiproliferative activity against SK-MES-1 (in words)” value is “showed effect”. Besides, in assay [2], the IC50 was found to be 61.4 ± 3.1 µM and the “antiproliferative activity against J82 (in words)” value is on record as “showed effect”. Besides, in the assay with HL-60 cells, the “antiproliferative activity against HL-60 (in words)” value is on record as “devoid of activity” and the IC50 was above 100 µM.

As for `C=C1CCC2[C@](C)(CCC[C@]2(C)C(=O)OC)[C@H]1CC[C@@H](C)CCOC(=O)CCC(=O)OCC[C@H](C)CC[C@H]1C(=C)CCC2[C@]1(C)CCC[C@]2(C)C(=O)OC` (some centres unmarked) [Compound 13], the IC50 in the assay with MRC-5 normal fibroblasts was 76.8 ± 5.4 µM; in the assay on AGS cells it was 62.9 ± 3.9 µM; in assay [1] it was 68.2 ± 4.5 µM; in assay [2], 72.1 ± 4.3 µM; in the assay with HL-60 cells it was 60.8 ± 4.2 µM.

In the case of `C=C1CCC2[C@](C)(CCC[C@]2(C)C(=O)OC)[C@H]1CC[C@@H](C)CCOC(=O)c1ccccc1C(=O)OCC[C@H](C)CC[C@H]1C(=C)CCC2[C@]1(C)CCC[C@]2(C)C(=O)OC` (some centres unmarked) [Compound 14], the IC50 was 76.3 ± 5.8 µM in the assay with MRC-5 normal fibroblasts; 51.7 ± 2.8 µM in the assay on AGS cells; above 100 µM in assay [1]; above 100 µM in assay [2]; 55.6 ± 3.9 µM in the assay with HL-60 cells.

Turning to `C=C1CCC2[C@](C)(CCC[C@]2(C)C(=O)O)[C@H]1CC[C@@H](C)CC(=O)OCc1cn(CC[C@H](C)CC[C@H]2C(=C)CCC3[C@]2(C)CCC[C@]3(C)C(=O)OC)nn1` (some centres unmarked) [Compound 15], the IC50 was above 100 µM in the assay on MRC-5 normal fibroblasts; 39.4 ± 2.4 µM with AGS cells; 56 ± 4.5 µM in assay [1]; 84.7 ± 6.8 µM in assay [2]; 44.1 ± 4.1 µM in the assay on HL-60 cells.

Consider `C=C1CCC2[C@](C)(CCC[C@]2(C)C(=O)OC)[C@H]1CC[C@@H](C)CCn1cc(COC(=O)C[C@H](C)CC[C@H]2C(=C)CCC3[C@]2(C)CCC[C@]3(C)C(=O)OC)nn1` (some centres unmarked) [Compound 16], for which the IC50 (with MRC-5 normal fibroblasts; in the assay with AGS cells; in assay [1]; in assay [2]; in the assay with HL-60 cells) was above 100 µM in each case.

Turning to `C=C1CCC2[C@](C)(CCC[C@]2(C)C(=O)O)[C@H]1CC[C@@H](C)CC(=O)OCCc1cn(CC[C@H](C)CC[C@H]2C(=C)CCC3[C@]2(C)CCC[C@]3(C)C(=O)OC)nn1` (some centres unmarked) [Compound 17], the IC50 with MRC-5 normal fibroblasts was determined as 79.6 ± 5.1 µM; with AGS cells, 23.4 ± 1.4 µM; in assay [1], 67.5 ± 4.9 µM; in assay [2], 34.6 ± 2.5 µM; in the assay with HL-60 cells, 23.2 ± 3.1 µM.

Regarding `C=C1CCC2[C@](C)(CCC[C@]2(C)C(=O)OC)[C@H]1CC[C@@H](C)CCn1cc(CCOC(=O)C[C@H](C)CC[C@H]2C(=C)CCC3[C@]2(C)CCC[C@]3(C)C(=O)OC)nn1` (some centres unmarked) [Compound 18], the IC50 (in the assay on MRC-5 normal fibroblasts; with AGS cells; in assay [1]; in assay [2]; in the assay on HL-60 cells) was above 100 µM in each case.

`COc1cc([C@@H]2c3cc4c(cc3[C@@H](O[C@@H]3O[C@@H]5CO[C@@H](C)O[C@H]5[C@H](O)[C@H]3O)[C@H]3COC(=O)[C@H]23)OCO4)cc(OC)c1O` [Etoposide, reference compound]: it took 0.58 ± 0.02 µM to reach half-maximal inhibition with AGS cells (IC50).
